Reference: ChEMBL document CHEMBL3804809, “Fatty Acid Transport Proteins: Targeting FATP2 as a Gatekeeper Involved in the Transport of Exogenous Fatty Acids” (Medchemcomm, 2016)

Legend:
[1] = system: Mus musculus; experiment: Downregulation of FATP2 mRNA level in […] null C57BL mouse small intestine at 0.01% administered through diet for 3 days by RT-PCR analysis; type: functional
[2] = system: Mus musculus; experiment: Upregulation of FATP2 mRNA level in C57BL mouse small intestine at 0.01% administered through diet for 3 days by RT-PCR analysis; type: functional
[3] = target: Long-chain fatty acid transport protein 2 (Homo sapiens, UniProt O14975); experiment: Inhibition of FATP2 in human HepG2 cells assessed as decrease in fatty acid transport after 5 mins by trypan blue dye based fluorescence quenching method; type: cell-based
[4] = system: Mus musculus; experiment: Downregulation of FATP2 mRNA level in […] null C57BL mouse small intestine at 0.1% administered through diet for 3 days by RT-PCR analysis; type: functional
[5] = system: Mus musculus; experiment: Upregulation of FATP2 mRNA level in C57BL mouse small intestine at 0.1% administered through diet for 3 days by RT-PCR analysis; type: functional
[6] = system: Mus musculus; experiment: Inhibition of 3C18-oleate absorption in tyloxapol-treated C57BL/6 mouse plasma at 300 mg/kg administered through gavage for 1 hr followed by 3C18-oleate addition measured after 0.5 to 6 hrs by LC/MS-MS analysis; type: functional; conditions: C57BL/6, Plasma, po

Chain of Long-chain fatty acid transport protein 2 (O14975 whole entry, looked up): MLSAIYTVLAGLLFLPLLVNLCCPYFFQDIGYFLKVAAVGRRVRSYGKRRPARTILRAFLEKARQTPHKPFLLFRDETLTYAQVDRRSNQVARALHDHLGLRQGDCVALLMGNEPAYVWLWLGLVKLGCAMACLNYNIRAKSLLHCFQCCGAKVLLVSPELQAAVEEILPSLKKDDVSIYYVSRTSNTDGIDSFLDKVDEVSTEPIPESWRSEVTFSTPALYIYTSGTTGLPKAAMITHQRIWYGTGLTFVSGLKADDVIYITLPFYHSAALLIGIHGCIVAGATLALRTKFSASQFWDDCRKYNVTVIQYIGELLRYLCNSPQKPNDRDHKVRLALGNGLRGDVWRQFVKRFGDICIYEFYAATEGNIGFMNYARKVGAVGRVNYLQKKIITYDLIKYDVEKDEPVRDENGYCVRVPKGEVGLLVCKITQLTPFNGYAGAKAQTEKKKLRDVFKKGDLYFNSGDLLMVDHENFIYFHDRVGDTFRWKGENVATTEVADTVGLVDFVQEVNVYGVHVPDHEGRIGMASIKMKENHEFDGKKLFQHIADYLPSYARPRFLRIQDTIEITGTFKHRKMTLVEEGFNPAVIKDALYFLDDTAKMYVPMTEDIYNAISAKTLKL

SMILES: CC(C)(Sc1ccc(CCN(CCCCC2CCCCC2)C(=O)NC2CCCCC2)cc1)C(=O)O [GW7647]
- fold change (FC) [1]: 2
- fold change (FC) [2]: 4

SMILES: O=c1cc(-c2ccc([N+](=O)[O-])cc2)[nH]c2c(-c3ccc(Cl)cc3)c(Cc3ccccc3)nn12
- IC50 [3]: 6.3 µM

SMILES: Cc1cccc(Nc2cc(Cl)nc(SCC(=O)O)n2)c1C [PIRINIXIC ACID]
- fold change (FC) [4]: 2
- fold change (FC) [5]: 4

SMILES: O=C1Nc2ccc(Br)cc2C12NN=C(c1ccccc1)S2 (configuration not stated)
- IC50 [3]: 6.7 µM
- inhibition in vivo at 300 mg/kg [6]: 80%
